Several values for one entry are separate records, joined by “and”; a condition that tells them apart may be missing. Identical values can stand only once. Like-named read-outs stand apart in the source and are kept apart here.
Assays:
[1] = tested on: C. elegans complex III (decylubiquinol-cytochrome C reductase); assay: In vitro complex III activity assay, C. elegans mitochondria; type: biochemical, Caenorhabditis elegans; conditions: for % Activity Complex III: 100 µM compound, relative to solvent control, mean (SEM); for Percent in vitro activity, Complex III (single replicate Rep1-Rep4) / Percent in vitro activity, Complex III (Mean): 100 μM of NPD compound, C. elegans mitochondria; for Percent in vitro activity, Complex III (single replicate Rep1-Rep4): individual biological replicates; for Percent in vitro activity, Complex III (Mean): mean of four biological replicates
Description: (§1) Mitochondria were isolated from the following free-living nematode strains: C. elegans—N2, CB3474, ECA882, ECA917, ECA1075, ECA1080; C. briggsae—AF16; P. pacificus—PS312; and P. hermaphrodita—B178. With the exception of the P. hermaphrodita strain B178, adult worms of each strain were grown in bulk through liquid culture to obtain mitochondria in sufficient quantities. Due to poor growth in liquid media, mixed stage populations of P. hermaphrodita were washed off and collected from NGM plates seeded with OP50. The isolation of mitochondria from all free-living nematode strains followed the protocol previously outlined in Burns et al.[24]. In brief, a 1 L saturated culture of E. coli HB101 was concentrated 20-fold in 50 mL complete S-medium. ~500,000 L1 worms synchronized from an embryo preparation performed the day prior were added to the S-media/HB101 suspension and grown to adulthood over the course of 3.5 days at 20 °C with shaking at 165 rpm. Following growth, worms were collected in 10 ×15 mL conical tubes and washed 7 times in M9 buffer. Worm suspensions were then combined into a single 15 mL conical tube and diluted to a final volume of 15 mL with M9 buffer. 1 mL aliquots of worm suspension were then distributed to 15 × 1.5 mL screw-cap microcentrifuge tubes and were pelleted at 500 g for 1 min. Excess M9 was aspirated without disturbing the worm pellet. 600 μL ice-cold isolate buffer A (250 mM sucrose, 10 mM Tris (pH 7.5), 1 mM EDTA, 1 mM PMSF (freshly prepared)) and 300 μL cold glass beads were then added to each tube. Tubes were incubated on ice for 10 min, and the worms were then lysed by bead beating (6 x 30 s, with 1 min cooling intervals). Tubes containing worm lysate were centrifuged at 1,000 g for 10 min at 4 °C and the supernatant was transferred to 15 new microcentrifuge tubes on ice. The tubes were centrifuged a second time at 1,000 g for 10 min at 4 °C and the supernatant was once again transferred to 15 new microcentrifuge tubes on ice. These tubes were then centrifuged at 16,000 g for 10 min at 4 °C. The resulting mitochondrial pellet was washed twice by re-suspension in 300 μL of ice-cold isolate buffer B (250 mM sucrose, 10 mM Tris (pH 7.5), 1 mM EDTA). Following the final wash, isolation buffer was aspirated from each tube and the pellets were flash-frozen in ethanol/dry ice and stored at −80 °C until needed.
(§2) The enzymatic activities of individual ETC complexes (I-IV) were assessed spectrophotometrically in isolated mitochondria using a Varioskan LUX Multimode plate reader (ThermoFisher Scientific). Mitochondrial pellets previously isolated were thawed on ice and resuspended in ice-cold isolation buffer (250 mM sucrose, 10 mM Tris (pH 7.5), 1 mM EDTA). The BCA assay (Walker, 1994) was used to quantify the protein concentration of mitochondria suspensions; solutions were diluted to a concentration of 0.2 mg/mL for use in all assays. For the complex I assay, mitochondria pellets were freeze-thawed on ice three times to increase enzyme accessibility. […] 20 μL mitochondria suspension was then added/mixed with a pipette to initiate the reaction. Immediately following the addition of mitochondria, absorbance was measured (complex I and II: 600 nm; complex III and IV: 550 nm) in 30 s intervals over 15 min. Enzymatic activity was determined in each reaction by plotting absorbance versus time and calculating the slope of the curve during the initial linear phase of the reaction. […] Percent activity of each complex was calculated by dividing the enzyme-specific activity of each well by the enzyme-specific activity of the corresponding solvent controls.
Antimycin A-sensitive complex III (decylubiquinol-cytochrome C […]) activity was determined by measuring the reduction of cytochrome C (CytC) as optimized in Luo et al.[59]. Decylubiquinol for complex III assays was prepared fresh as described in Janssen and Boyle, 2019[60].

[2] = biological target: C. elegans (N2) complex I (NADH:ubiquinone oxidoreductase) (Caenorhabditis elegans, UniProt P24887+Q93873+Q94360); assay: biochemical; type: biochemical; conditions: for % Activity Complex I: 100 µM compound, relative to solvent control, mean (SEM); for Percent in vitro activity, Complex I (single replicate Rep1-Rep4) / Percent in vitro activity, Complex I (Mean): 100 μM of NPD compound, C. elegans mitochondria; for Percent in vitro activity, Complex I (single replicate Rep1-Rep4): individual biological replicates; for Percent in vitro activity, Complex I (Mean): mean of four biological replicates
C. elegans (N2) complex I (NADH:ubiquinone oxidoreductase), sequence (Q94360 17-199): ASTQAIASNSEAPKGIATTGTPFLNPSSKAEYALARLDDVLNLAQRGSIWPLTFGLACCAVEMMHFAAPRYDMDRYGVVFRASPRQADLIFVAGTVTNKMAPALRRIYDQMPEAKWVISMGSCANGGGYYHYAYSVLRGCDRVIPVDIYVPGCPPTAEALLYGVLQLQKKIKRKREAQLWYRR
C. elegans (N2) complex I (NADH:ubiquinone oxidoreductase), sequence (P24887 whole entry): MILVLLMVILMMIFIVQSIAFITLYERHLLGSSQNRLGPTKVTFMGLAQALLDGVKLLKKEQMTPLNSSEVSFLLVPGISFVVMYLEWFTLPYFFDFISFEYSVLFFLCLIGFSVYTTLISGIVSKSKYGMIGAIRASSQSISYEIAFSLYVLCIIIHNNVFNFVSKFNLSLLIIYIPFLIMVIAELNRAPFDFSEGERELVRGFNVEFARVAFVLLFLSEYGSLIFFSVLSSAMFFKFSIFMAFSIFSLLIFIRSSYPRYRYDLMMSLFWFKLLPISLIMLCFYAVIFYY
C. elegans (N2) complex I (NADH:ubiquinone oxidoreductase), sequence (Q93873 31-482): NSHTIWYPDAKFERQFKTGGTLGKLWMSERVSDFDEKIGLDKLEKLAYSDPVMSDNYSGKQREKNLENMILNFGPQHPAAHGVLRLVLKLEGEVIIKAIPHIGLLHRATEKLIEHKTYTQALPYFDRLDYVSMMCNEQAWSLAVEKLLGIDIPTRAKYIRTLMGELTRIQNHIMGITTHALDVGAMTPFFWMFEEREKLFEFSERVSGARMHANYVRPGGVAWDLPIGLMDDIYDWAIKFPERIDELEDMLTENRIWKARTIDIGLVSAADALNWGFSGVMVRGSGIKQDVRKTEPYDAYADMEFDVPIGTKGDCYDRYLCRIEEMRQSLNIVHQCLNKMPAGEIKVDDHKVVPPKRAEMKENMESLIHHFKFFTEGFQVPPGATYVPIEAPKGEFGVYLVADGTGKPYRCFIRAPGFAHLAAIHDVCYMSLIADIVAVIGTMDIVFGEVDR
Summary of the method: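 Complex I rate: initial linear slope of A600 over 15 min, expressed as percent of solvent control. Triple freeze-thawed mitochondria (0.2 mg/mL) in KPi pH 7.5, BSA 3 mg/mL, NADH 80 μM, decylubiquinone 60 μM, DCIP 160 μM, antimycin A, KCN.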

C. elegans = C. elegans chemical screens of RIKEN NPD libraries at 50 μM (hit identification in KCN survival and development/viability assays); type: cell-based, Caenorhabditis elegans; conditions: screened at 50 μM in triplicate; hit = modified z-score < −3; KCN = KCN survival assay, Dev. & Viability = development/viability assay
L1 wild-type C. elegans = conditions: for LC50: caenorhabditis elegans
HEK293 cells = conditions: for CC50: read-out: HEK293 Cell Viability Assay LC50, 2 days exposure; for HEK293 viability: individual replicate (Rep)
[3] = tested on: C. elegans complex IV (cytochrome C oxidase); assay: In vitro complex IV activity assay, C. elegans mitochondria; type: biochemical, Caenorhabditis elegans; conditions: for % Activity Complex IV: 100 µM compound, relative to solvent control, mean (SEM); for Percent in vitro activity, Complex IV (single replicate Rep1-Rep4) / Percent in vitro activity, Complex IV (Mean): 100 μM of NPD compound, C. elegans mitochondria; for Percent in vitro activity, Complex IV (single replicate Rep1-Rep4): individual biological replicates; for Percent in vitro activity, Complex IV (Mean): mean of four biological replicates
Description: as §1, §2
Complex IV (cytochrome C oxidase) activity was determined by following the oxidation of CytC in the protocol outlined by Janssen and Boyle, 2019[60]. Reduced CytC was prepared fresh by adding 1 μL increments of 1 M dithiothreitol to a 1 mM solution of CytC and vortexing. A colour change from brown to orange/pink signals when CytC has been reduced.

[4] = biological target: C. elegans complex II (succinate dehydrogenase) (Caenorhabditis elegans, UniProt O62215+P41956+Q09545); assay: In vitro complex II activity assay, C. elegans mitochondria; type: biochemical; conditions: for % Activity Complex II: 100 µM compound, relative to solvent control, mean (SEM); for Percent in vitro activity, Complex II (single replicate Rep1-Rep4) / Percent in vitro activity, Complex II (Mean): 100 μM of NPD compound, C. elegans mitochondria; for Percent in vitro activity, Complex II (single replicate Rep1-Rep4): individual biological replicates; for Percent in vitro activity, Complex II (Mean): mean of four biological replicates
C. elegans complex II (succinate dehydrogenase), sequence (P41956 30-182): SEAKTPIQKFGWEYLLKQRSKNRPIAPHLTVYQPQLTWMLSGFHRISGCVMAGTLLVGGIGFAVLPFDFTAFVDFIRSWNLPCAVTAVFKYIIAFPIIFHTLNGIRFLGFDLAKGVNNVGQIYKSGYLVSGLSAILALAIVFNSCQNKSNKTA
C. elegans complex II (succinate dehydrogenase), sequence (Q09545 22-298): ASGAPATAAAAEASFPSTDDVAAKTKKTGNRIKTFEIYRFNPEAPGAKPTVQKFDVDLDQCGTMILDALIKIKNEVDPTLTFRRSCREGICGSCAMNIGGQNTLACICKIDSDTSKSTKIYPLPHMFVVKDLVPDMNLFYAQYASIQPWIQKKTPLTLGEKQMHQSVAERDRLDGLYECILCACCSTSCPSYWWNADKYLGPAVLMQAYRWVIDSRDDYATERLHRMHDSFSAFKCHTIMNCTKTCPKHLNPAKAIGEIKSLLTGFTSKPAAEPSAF
C. elegans complex II (succinate dehydrogenase), sequence (Q09508 32-646, further chain): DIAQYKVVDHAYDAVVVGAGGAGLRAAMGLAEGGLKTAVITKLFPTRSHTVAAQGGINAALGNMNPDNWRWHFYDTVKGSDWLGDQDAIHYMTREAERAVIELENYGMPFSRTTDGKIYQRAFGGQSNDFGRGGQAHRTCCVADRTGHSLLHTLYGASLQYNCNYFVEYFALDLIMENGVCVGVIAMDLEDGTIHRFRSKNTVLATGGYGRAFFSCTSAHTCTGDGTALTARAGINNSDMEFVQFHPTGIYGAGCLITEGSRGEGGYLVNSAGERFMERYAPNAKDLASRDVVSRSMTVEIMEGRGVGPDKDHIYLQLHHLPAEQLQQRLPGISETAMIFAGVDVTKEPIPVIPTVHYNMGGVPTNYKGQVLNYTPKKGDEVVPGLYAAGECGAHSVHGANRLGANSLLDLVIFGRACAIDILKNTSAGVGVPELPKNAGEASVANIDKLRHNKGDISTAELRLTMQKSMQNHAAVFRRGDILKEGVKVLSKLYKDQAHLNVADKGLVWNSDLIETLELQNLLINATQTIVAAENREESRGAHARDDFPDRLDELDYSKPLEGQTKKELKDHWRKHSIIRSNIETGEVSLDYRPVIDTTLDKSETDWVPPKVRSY
C. elegans complex II (succinate dehydrogenase), sequence (O62215 31-145): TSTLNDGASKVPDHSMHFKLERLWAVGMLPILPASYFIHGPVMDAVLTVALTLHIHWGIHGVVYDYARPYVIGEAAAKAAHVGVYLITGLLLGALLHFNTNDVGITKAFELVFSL
Description: as §1, §2
Complex II (succinate dehydrogenase) activity was assessed using the DCIP-coupled method previously described in Burns et al.[24].
For preliminary screens of hit compounds, compounds were screened at 100 μM; data are the average of at least three biological replicates. The complex I and II activity assays were used for additional dose-response experiments.

Row | Structure (SMILES) | % Activity Complex III [1] | Percent in vitro activity, Complex III (single replicate Rep1-Rep4) [1] | Percent in vitro activity, Complex III (Mean) [1] [%] | % Activity Complex I [2] | Percent in vitro activity, Complex I (single replicate Rep1-Rep4) [2] | Percent in vitro activity, Complex I (Mean) [2] [%] | Hit Type (C. elegans) | C. elegans L1 relative motility, 3-hour post 200 µM KCN dilution (L1 wild-type C. elegans) | LC50 (L1 wild-type C. elegans) [µM] | CC50 (HEK293 cells) [µM] | % Activity Complex IV [3] | Percent in vitro activity, Complex IV (single replicate Rep1-Rep4) [3] | Percent in vitro activity, Complex IV (Mean) [3] [%] | % Activity Complex II [4] | Percent in vitro activity, Complex II (single replicate Rep1-Rep4) [4] | Percent in vitro activity, Complex II (Mean) [4] [%] | other results
1 | Cc1cc(O)c(C(=O)/C=C/c2ccc(C(C)C)cc2)c(=O)o1 [NPD6240] | 58.21 (2.30) % | 63.255% and 68.621% and 49.848% and 51.103% | 58.207 | 102.09 (1.80) % | 109.404% and 106.987% and 94.906% and 97.066% | 102.091 | KCN | 0.078 | 7.6 | 24.8 | 26.82 (0.75) % | 23.388% and 25.790% and 27.706% and 30.409% | 26.823 | 87.73 (3.81) % | 105.436% and 95.089% and 72.487% and 77.924% | 87.734 | 
2 | COc1ccc(-c2cc(=Nc3ccccc3N)c3ccccc3o2)cc1 [NPD6380] | 107.06 (1.36) % | 109.305% and 109.700% and 110.292% and 98.948% | 107.062 | 86.43 (2.27) % | 77.779% and 82.402% and 98.876% and 86.642% | 86.425 | KCN |  | 14.3 | 29.2 | 115.38 (4.42) % | 108.559% and 111.425% and 100.551% and 140.996% | 115.383 | 102.27 (2.46) % | 113.834% and 92.410% and 96.068% and 106.772% | 102.271 | C. elegans L1 relative motility, 3-hour post 200 µM KCN dilution (L1 wild-type C. elegans; dose 0.4 µM, individual replicate (Rep)): 1.243 and 1.189; C. elegans L1 relative motility, 3-hour post 200 µM KCN dilution (L1 wild-type C. elegans; dose 0.8 µM, individual replicate (Rep)): 1.074 and 1.086; C. elegans L1 relative motility, 3-hour post 200 µM KCN dilution (L1 wild-type C. elegans; dose 3.1 µM, individual replicate (Rep)): 1.020 and 1.053; C. elegans L1 relative motility, 3-hour post 200 µM KCN dilution (L1 wild-type C. elegans; dose 6.3 µM, individual replicate (Rep)): 1.040 and 1.101; C. elegans L1 relative motility, 3-hour post 200 µM KCN dilution (L1 wild-type C. elegans; dose 12.5 µM, individual replicate (Rep)): 0.696 and 0.688; C. elegans L1 relative motility, 3-hour post 200 µM KCN dilution (L1 wild-type C. elegans; dose 25 µM, individual replicate (Rep)): 0.136 and 0.141; C. elegans L1 relative motility, 3-hour post 200 µM KCN dilution (L1 wild-type C. elegans; dose 50 µM, individual replicate (Rep)): 0.030 and 0.035; HEK293 viability (HEK293 cells; dose 0.8 µM): 0.998; HEK293 viability (HEK293 cells; dose 3.1 µM): 0.945 and 0.951; HEK293 viability (HEK293 cells; dose 6.3 µM): 0.687 and 0.797; HEK293 viability (HEK293 cells; dose 12.5 µM): 0.542 and 0.584; HEK293 viability (HEK293 cells; dose 25 µM): 0.441 and 0.466; HEK293 viability (HEK293 cells; dose 50 µM): 0.431 and 0.445
3 | O=C1OC(c2ccccc2)=NC1=CC=Cc1ccccc1 (mixture of isomers) [NPD8298] | 101.94 (2.48) % | 91.530% and 111.178% and 95.430% and 109.622% | 101.940 | 79.90 (1.23) % | 86.721% and 79.429% and 78.427% and 75.015% | 79.898 | KCN | 0.014 | 2.57 | > 50 | 108.05 (2.17) % | 99.305% and 106.055% and 106.771% and 120.048% | 108.045 | 110.37 (5.08) % | 109.359% and 85.283% and 134.975% and 111.861% | 110.370 | 
4 | CCCCCCCCCCCCCCCc1cccc(O)c1C(=O)O [Anacardic acid] | 0.00 (0.00) % | 0.000% | 0.000 | 92.95 (1.67) % | 100.303% and 96.789% and 88.185% and 86.534% | 92.953 | KCN |  | 3.35 | > 50 | 15.80 (1.15) % | 11.285% and 16.095% and 13.805% and 22.025% | 15.803 | 87.62 (1.34) % | 86.093% and 91.144% and 92.500% and 80.735% | 87.618 | 

— publication PMC11079024, “Identification of a family of species-selective complex I inhibitors as potential anthelmintics” (Nature Communications, 2024)
